Reference: patent publication US20040186098A1 (Amgen Inc., priority 1997, published 2004)

Assays:
outer hair cells (OHC) = assay: Intramiddle ear neomycin-induced ototoxicity, compound given into the middle ear, outer hair cell loss; assay type: in vivo, guinea pig; conditions: for hair cells (protected) after neomycin: 5 mg neomycin, 14 days after second surgery
Protocol: Twenty guinea pigs used in this study were divided into two groups: 10 animals received 10 ng and 10 received 1 ng of the sensorineurotrophic compound.
Sensorineurotrophic compound stock A: A stock solution of sensorineurotrophic compound at 1 mg/10 ml in 100% ethanol was prepared and then diluted and mixed in Intralipid at 10 ng/100 μl.
Sensorineurotrophic compound stock B: A stock solution of sensorineurotrophic compound at 1 mg/100 ml in 100% ethanol was prepared and then diluted and mixed in 20% Intralipid at 1 ng/100 μl.
Animals were anesthetized with an intramuscular injection of a mixture of ketamine (80 mg/kg) and xylazine (4 mg/kg). Through a post-auricular incision, the right bulla was identified. A hole was drilled to open the middle ear cavity (care was taken not to injure the tympanic annulus or ossicles). A piece of gelfoam (˜2 mm^3) soaked with the sensorineurotrophic compound solution was inserted into the round window niche. The remaining sensorineurotrophic compound solution (˜100 μl) then was injected into the middle ear cavity. In the 10 ng dose group, 100 μl of sensorineurotrophic compound stock A was administered; and in the 1 ng dose group, 100 μl of sensorineurotrophic compound stock B was administered to the middle ear cavity. The hole was covered with a piece of clear plastic sheet which was stuck on the skull with a superglue. The incision was closed with clips. The same procedure was performed at the left bulla, but 100 μl of vehicle solution instead of sensorineurotrophic compound solution was administered. The animals were maintained in the prone position until they woke up to ensure filling of the middle ear cavity.
After two days, the animals received a second middle ear administration of sensorineurotrophic compound or vehicle together with neomycin. Solutions were prepared for the two groups of animals as follows:
Solution A: Neomycin was dissolved in sensorineurotrophic compound stock A described above. The final concentration of neomycin was 5 mg and the sensorineurotrophic compound concentration was 10 ng in a 100 μl vehicle solution.
Solution B: Neomycin was dissolved in sensorineurotrophic compound stock B described above. The final concentration of neomycin was 5 mg and the concentration of sensorineurotrophic compound was 1 ng in a 100 μl vehicle solution.
Solution C: Neomycin was dissolved in 20% Intralipid to a final concentration of 5 mg in 100 μl vehicle.
The plastic cover sheet on the bulla window was removed and the middle ear cavity was exposed. The old sensorineurotrophic compound or vehicle was sucked off and the old gelfoam was removed from the round window niche. A piece of gelfoam with fresh stock solution containing sensorineurotrophic compound and neomycin was administered to the round window niche, and the remaining solution (˜100 μl, solution A for the 10 ng dose group and solution B for the 1 ng dose group, respectively) was injected into the middle ear cavity of the right bulla.
Solution C (100 μl) was administered to the left ear for both groups in the same way.
Fourteen days after the second surgery, animals were perfused transcardially with a PBS flush followed by a fixative of 4% paraformaldehyde in 0.1M PBS. Immediately following the perfusion, the temporal bone was removed from the head. The bulla was opened and the cochlea was exposed. The apex was opened and the membrane of the round and oval windows was punched. The fixative solution was gently infused into the perilymphatic space through the apex hole and then allowed to flow out from windows. Then the cochleae were post-fixed in the same fixative solution for at least one day.
To identify and count hair cells in the organ of Corti, a direct immunostaining method was used to label the actin present naturally in the stereocilia bundles of the hair cells. The cochlea was dissected and the perilymphatic space was fully exposed. […]

[1] = system: hair cells in rat organ of Corti explant; conditions: Compound I 0.05 pM, pretreatment at plating, cisplatin exposure day 2 to day 4; untreated 17%

With `CCC(C)(C)C(=O)C(=O)N1CCC[C@H]1C(=O)OCCCc1cccnc1` [Compound I] the “hair cells (protected) after neomycin” value (outer hair cells (OHC); 1 ng in the middle ear) was ~70%, the “Neomycin-induced OHC Loss (%), Right (Treated), mean ± SEM” value (outer hair cells (OHC); 1 ng intramiddle ear, turn-1, n = 7) was 8.85 ± 1.47% and the “Neomycin-induced OHC Loss (%), Right (Treated), mean ± SEM” value (outer hair cells (OHC); 1 ng intramiddle ear, turn-2, n = 7) was 4.01 ± 0.53%. The “Neomycin-induced OHC Loss (%), Right (Treated), mean ± SEM” value (outer hair cells (OHC); 1 ng intramiddle ear, turn-3, n = 7) was 0.92 ± 0.10%, the “Neomycin-induced OHC Loss (%), Right (Treated), mean ± SEM” value (outer hair cells (OHC); 1 ng intramiddle ear, turn-4, n = 7) was 1.67 ± 1.25% and the “Neomycin-induced OHC Loss (%), Right (Treated), mean ± SEM” value (outer hair cells (OHC); 1 ng intramiddle ear, whole cochlea, n = 7) was 3.86 ± 0.37%. The “hair cells (protected) after neomycin” value (outer hair cells (OHC); 10 ng in the middle ear) was “around 75%”, the “Neomycin-induced OHC Loss (%), Right (Treated), mean ± SEM” value (outer hair cells (OHC); 10 ng intramiddle ear, turn-1, n = 9) was 15.47 ± 6.05% and the “Neomycin-induced OHC Loss (%), Right (Treated), mean ± SEM” value (outer hair cells (OHC); 10 ng intramiddle ear, turn-2, n = 9) was 13.93 ± 10.75%. The “Neomycin-induced OHC Loss (%), Right (Treated), mean ± SEM” value (outer hair cells (OHC); 10 ng intramiddle ear, turn-3, n = 9) was 11.64 ± 10.85%, the “Neomycin-induced OHC Loss (%), Right (Treated), mean ± SEM” value (outer hair cells (OHC); 10 ng intramiddle ear, turn-4, n = 9) was 4.69 ± 2.85% and the “Neomycin-induced OHC Loss (%), Right (Treated), mean ± SEM” value (outer hair cells (OHC); 10 ng intramiddle ear, whole cochlea, n = 9) was 11.44 ± 7.27%. The “protection of hair cells against ototoxicity, in words” value (outer hair cells (OHC); 10 ng or 1 ng in the middle ear, neomycin) was “protect completely hair cells against ototoxicity”, the “loss of hair cells, in words (FIGS. 4A and 4B)” value (outer hair cells (OHC); all animals at 1 ng, all but one at 10 ng, neomycin and vehicle: almost complete loss) was “very minimal loss of hair cells” and the surviving hair cells [1] was 41.4%.
